The target of the test is Xanthine dehydrogenase/oxidase (Rattus norvegicus, UniProt P22985). Kind of test: Inhibition of rat liver xanthine oxidase after 2 hrs by spectrophotometry.

The structures appear in SMILES notation.

Xanthine dehydrogenase/oxidase, sequence (P22985 whole entry): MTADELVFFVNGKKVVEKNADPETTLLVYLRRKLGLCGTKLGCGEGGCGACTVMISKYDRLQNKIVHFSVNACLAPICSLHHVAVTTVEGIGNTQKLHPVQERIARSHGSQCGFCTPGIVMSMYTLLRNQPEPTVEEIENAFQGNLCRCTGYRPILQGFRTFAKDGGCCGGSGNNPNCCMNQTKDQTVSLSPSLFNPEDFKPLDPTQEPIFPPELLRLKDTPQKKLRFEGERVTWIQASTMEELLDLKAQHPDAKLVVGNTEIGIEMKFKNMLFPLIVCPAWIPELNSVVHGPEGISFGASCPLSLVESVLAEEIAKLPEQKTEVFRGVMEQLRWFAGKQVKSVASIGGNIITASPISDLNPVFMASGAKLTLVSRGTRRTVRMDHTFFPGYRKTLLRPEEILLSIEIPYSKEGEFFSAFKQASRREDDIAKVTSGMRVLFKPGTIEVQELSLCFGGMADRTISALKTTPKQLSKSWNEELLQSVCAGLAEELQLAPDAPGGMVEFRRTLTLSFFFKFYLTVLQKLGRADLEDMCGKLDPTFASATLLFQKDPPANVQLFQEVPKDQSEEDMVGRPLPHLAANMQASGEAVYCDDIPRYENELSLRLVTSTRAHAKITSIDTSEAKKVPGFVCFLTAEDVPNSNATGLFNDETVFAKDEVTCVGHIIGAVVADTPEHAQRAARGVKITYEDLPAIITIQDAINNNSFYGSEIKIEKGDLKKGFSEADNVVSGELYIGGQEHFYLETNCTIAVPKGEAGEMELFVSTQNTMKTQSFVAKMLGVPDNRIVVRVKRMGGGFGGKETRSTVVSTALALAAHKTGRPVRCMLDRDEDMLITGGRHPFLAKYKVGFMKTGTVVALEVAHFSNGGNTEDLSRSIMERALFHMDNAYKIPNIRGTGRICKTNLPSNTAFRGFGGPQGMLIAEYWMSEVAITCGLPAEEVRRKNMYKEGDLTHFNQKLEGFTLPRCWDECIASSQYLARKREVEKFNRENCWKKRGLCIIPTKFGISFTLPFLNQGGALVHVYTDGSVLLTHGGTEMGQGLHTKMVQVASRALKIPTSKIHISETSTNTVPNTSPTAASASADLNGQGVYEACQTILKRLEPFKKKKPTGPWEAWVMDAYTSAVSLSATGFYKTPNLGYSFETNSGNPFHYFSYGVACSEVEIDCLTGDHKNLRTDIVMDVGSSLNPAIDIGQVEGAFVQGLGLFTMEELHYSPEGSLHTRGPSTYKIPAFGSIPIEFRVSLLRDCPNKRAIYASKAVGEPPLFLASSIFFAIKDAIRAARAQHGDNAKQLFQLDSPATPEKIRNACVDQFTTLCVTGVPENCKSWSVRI

The IC50 is the concentration that inhibits the measured activity by half. High values mean weaker potency in that assay, low ones greater potency in that assay. As for `COc1cc([C@@H]2Oc3cc(C4Oc5cc(O)cc(O)c5C(O)C4=O)ccc3O[C@H]2CO)ccc1O` (some centres not stated) [SMR000857154], the half-inhibitory concentration (IC50) is 80.3 µM. The result for `COc1cc(C2Oc3cc(-c4oc5cc(O)cc(=O)c-5c(O)c4O)ccc3OC2CO)ccc1O` (configuration not stated) [Dehydrosilylbin] reads 80.3 µM.

(Values after BindingDB's records for doi:10.1021/jm900735p (Pharmacy School of Wenzhou Medical College, 2009).)
